Laboratory results from ChEMBL document CHEMBL3885861, “Open TG-GATES”.

Organism: Rattus norvegicus
Assay: Open TG-GATES - Regimen: Single
Assay type: toxicity, organism-based, Sprague-Dawley
Parameters: regimen Single, gender Male, age 6 weeks
Conditions: in vivo, po, route gavage; for TP / gamma-GTP / ALT / AST / BUN / CRE / DBIL / GLC / IP / K / LDH / RALB / TBIL / TC / ALP / PL: tissue Plasma; for APTT / Bas / Eos / Fbg / Ht / Lym / MCHC / MCV / Mono / PT / Plat / RBC / Ret / WBC: tissue Blood; for KIDNEY_L / KIDNEY_R / KIDNEY_TOTAL: tissue Kidney; for LIVER: tissue Liver
[1] = 30 mg/kg, 3 h, dose level Middle
[2] = 30 mg/kg, 6 h, dose level Middle
[3] = 30 mg/kg, 9 h, dose level Middle
[4] = 30 mg/kg, 24 h, dose level Middle
[5] = 100 mg/kg, 3 h, dose level High
[6] = 100 mg/kg, 6 h, dose level High
[7] = 100 mg/kg, 9 h, dose level High
[8] = 100 mg/kg, 24 h, dose level High

## CN(C)CCCN1c2ccccc2CCc2ccccc21 [IMIPRAMINE]
10 mg/kg, 24 h, dose level Low
  TP: 5.4 g/dL
  gamma-GTP: 1 IU/L
[1]
  TERMINAL_BW: 202.2 g
  APTT: 16.3 s
  Bas: 0.2%
  Eos: 1%
  Fbg: 313 mg/dL
  Ht: 42.7%
  Lym: 78.8%
  MCHC: 32.4%
  MCV: 65.8 fL
  Mono: 3%
  PT: 15.6 s
  Plat: 106.2 x10_4/uL
  RBC: 651.2 x10_4/ul
  Ret: 8.1%
  WBC: 75.9 x10_2/uL
  KIDNEY_L: 0.9 g
  KIDNEY_R: 0.9 g
  KIDNEY_TOTAL: 1.8 g
  LIVER: 9.5 g
  ALT: 43.4 IU/L
  AST: 70.2 IU/L
  BUN: 7.8 mg/dL
  CRE: 0.1 mg/dL
  DBIL: 0.008 mg/dL
  GLC: 191.6 mg/dL
  IP: 9.1 mg/dL
  K: 4 meq/L
  LDH: 88.4 IU/L
  RALB: 2.6 g/dL
  TBIL: 0.058 mg/dL
  TC: 79.2 mg/dL
  TP: 5.6 g/dL
  gamma-GTP: 1 IU/L
[2]
  TERMINAL_BW: 198.5 g
  APTT: 16.1 s
  Bas: 0%
  Eos: 1%
  Fbg: 311.6 mg/dL
  Ht: 41.9%
  Lym: 72.6%
  MCHC: 32.7%
  MCV: 63.9 fL
  Mono: 3.2%
  PT: 15.7 s
  Plat: 122.8 x10_4/uL
  RBC: 656 x10_4/ul
  Ret: 7.6%
  WBC: 81.3 x10_2/uL
  KIDNEY_L: 0.9 g
  KIDNEY_R: 0.9 g
  KIDNEY_TOTAL: 1.8 g
  ALP: 1270.6 IU/L
  ALT: 40.2 IU/L
  AST: 72.8 IU/L
  BUN: 6.2 mg/dL
  CRE: 0.1 mg/dL
  DBIL: 0.01 mg/dL
  GLC: 177.4 mg/dL
  IP: 9.8 mg/dL
  K: 4.1 meq/L
  LDH: 138.2 IU/L
  RALB: 2.5 g/dL
  TBIL: 0.062 mg/dL
  TC: 81.2 mg/dL
  TP: 5.4 g/dL
  gamma-GTP: 1.4 IU/L
[3]
  TERMINAL_BW: 197.4 g
  APTT: 15.4 s
  Bas: 0%
  Eos: 1%
  Fbg: 290.8 mg/dL
  Ht: 42.1%
  Lym: 78.4%
  MCHC: 32.5%
  MCV: 65.8 fL
  Mono: 1.8%
  PT: 15.8 s
  Plat: 111.8 x10_4/uL
  RBC: 639.4 x10_4/ul
  Ret: 7.8%
  WBC: 69.2 x10_2/uL
  KIDNEY_L: 0.9 g
  KIDNEY_R: 1 g
  KIDNEY_TOTAL: 1.9 g
  LIVER: 8.4 g
  ALP: 1205.4 IU/L
  ALT: 35.8 IU/L
  AST: 65.2 IU/L
  BUN: 5.8 mg/dL
  CRE: 0.1 mg/dL
  DBIL: 0.01 mg/dL
  GLC: 191 mg/dL
  IP: 9.6 mg/dL
  K: 4.1 meq/L
  LDH: 64.6 IU/L
  PL: 131.2 mg/dL
  RALB: 2.5 g/dL
  TBIL: 0.06 mg/dL
  TC: 68 mg/dL
  TP: 5.3 g/dL
  gamma-GTP: 0.8 IU/L
[4]
  TERMINAL_BW: 209.9 g
  APTT: 16.1 s
  Bas: 0%
  Eos: 1%
  Fbg: 298.2 mg/dL
  Ht: 41.7%
  Lym: 82%
  MCHC: 32.6%
  MCV: 64.6 fL
  Mono: 2.4%
  PT: 16.5 s
  Plat: 119.3 x10_4/uL
  RBC: 644.8 x10_4/ul
  Ret: 7.6%
  WBC: 75.5 x10_2/uL
  KIDNEY_L: 0.9 g
  KIDNEY_R: 0.9 g
  KIDNEY_TOTAL: 1.8 g
  LIVER: 9.2 g
  ALP: 1509.8 IU/L
  ALT: 45.6 IU/L
  AST: 69.6 IU/L
  CRE: 0.2 mg/dL
  GLC: 177 mg/dL
  IP: 7.8 mg/dL
  K: 4.2 meq/L
  LDH: 101.8 IU/L
  RALB: 2.7 g/dL
  TBIL: 0.06 mg/dL
  TC: 85.2 mg/dL
  TP: 5.6 g/dL
  gamma-GTP: 1 IU/L
[5]
  TERMINAL_BW: 202.6 g
  APTT: 16.3 s
  Bas: 0%
  Eos: 0.5%
  Fbg: 283.8 mg/dL
  Ht: 40.4%
  Lym: 72.5%
  MCHC: 32.8%
  MCV: 63.6 fL
  Mono: 3.2%
  PT: 15.8 s
  Plat: 110.1 x10_4/uL
  RBC: 635.8 x10_4/ul
  Ret: 8.6%
  WBC: 79.2 x10_2/uL
  KIDNEY_L: 0.9 g
  KIDNEY_R: 0.9 g
  KIDNEY_TOTAL: 1.8 g
  LIVER: 9.4 g
  ALP: 1336.2 IU/L
  ALT: 45 IU/L
  AST: 73.5 IU/L
  BUN: 6.8 mg/dL
  CRE: 0.1 mg/dL
  DBIL: 0.0125 mg/dL
  GLC: 190.8 mg/dL
  IP: 10 mg/dL
  K: 3.9 meq/L
  LDH: 61 IU/L
  PL: 138 mg/dL
  RALB: 2.5 g/dL
  TBIL: 0.07 mg/dL
  TC: 69 mg/dL
  TP: 5.3 g/dL
  gamma-GTP: 1.2 IU/L
[6]
  TERMINAL_BW: 200.3 g
  APTT: 15.9 s
  Bas: 0%
  Eos: 0.8%
  Fbg: 299.4 mg/dL
  Ht: 42.4%
  Lym: 71.2%
  MCHC: 32.2%
  MCV: 66.2 fL
  Mono: 3%
  PT: 15.8 s
  Plat: 108.9 x10_4/uL
  RBC: 641.6 x10_4/ul
  Ret: 8.3%
  WBC: 74.4 x10_2/uL
  KIDNEY_L: 0.9 g
  KIDNEY_R: 0.9 g
  KIDNEY_TOTAL: 1.8 g
  ALP: 1251.8 IU/L
  ALT: 37 IU/L
  AST: 64.2 IU/L
  BUN: 6.4 mg/dL
  CRE: 0.1 mg/dL
  DBIL: 0.01 mg/dL
  GLC: 182 mg/dL
  IP: 9.9 mg/dL
  K: 4 meq/L
  LDH: 62.8 IU/L
  RALB: 2.5 g/dL
  TBIL: 0.062 mg/dL
  TC: 83.8 mg/dL
  TP: 5.4 g/dL
  gamma-GTP: 1.2 IU/L
[7]
  TERMINAL_BW: 199.8 g
  APTT: 16.1 s
  Bas: 0.2%
  Eos: 0.8%
  Fbg: 309.4 mg/dL
  Ht: 42%
  Lym: 73%
  MCHC: 32.2%
  MCV: 66.8 fL
  Mono: 2.4%
  PT: 15.8 s
  Plat: 111.5 x10_4/uL
  RBC: 629.2 x10_4/ul
  Ret: 8.8%
  WBC: 70.8 x10_2/uL
  KIDNEY_L: 0.9 g
  KIDNEY_R: 0.9 g
  KIDNEY_TOTAL: 1.8 g
  LIVER: 8.3 g
  ALP: 1131.2 IU/L
  ALT: 35.6 IU/L
  AST: 63.6 IU/L
  BUN: 5.2 mg/dL
  CRE: 0.1 mg/dL
  GLC: 179.2 mg/dL
  IP: 10.2 mg/dL
  K: 4.1 meq/L
  LDH: 59.2 IU/L
  RALB: 2.5 g/dL
  TBIL: 0.056 mg/dL
  TC: 80.8 mg/dL
  TP: 5.4 g/dL
  gamma-GTP: 1 IU/L
[8]
  TERMINAL_BW: 198.2 g
  APTT: 16 s
  Bas: 0%
  Eos: 0.6%
  Fbg: 293.2 mg/dL
  Ht: 42.6%
  Lym: 82.6%
  MCHC: 32.4%
  MCV: 65.1 fL
  Mono: 2%
  PT: 16.6 s
  Plat: 116.4 x10_4/uL
  RBC: 655.2 x10_4/ul
  Ret: 7.3%
  WBC: 49 x10_2/uL
  KIDNEY_L: 0.9 g
  KIDNEY_R: 0.9 g
  KIDNEY_TOTAL: 1.8 g
  LIVER: 8.1 g
  ALP: 1350.6 IU/L
  ALT: 35.4 IU/L
  AST: 61 IU/L
  BUN: 12.8 mg/dL
  CRE: 0.2 mg/dL
  DBIL: 0.02 mg/dL
  GLC: 176.4 mg/dL
  IP: 8.2 mg/dL
  K: 4.5 meq/L
  LDH: 62.8 IU/L
  PL: 137.8 mg/dL
  RALB: 2.6 g/dL
  TBIL: 0.062 mg/dL
  TC: 83.2 mg/dL
  TP: 5.6 g/dL
  gamma-GTP: 1.2 IU/L
